# Reference: patent US12102685B2, “Immodulator peptides covalently modified with small molecules” (priority 2020, dated 2024)
# How the values were obtained:
# [1] = NTA-metal-affinity ELISA (Experiment x2A); format: binding
# Protocol: The NTA-metal-affinity ELISA assay was performed using 96-well NTA-metal-coated plates readily available from commercial sources such as Qiagen (Germantown, MD). The NTA was charged with ferrous or ferric iron, zinc, copper, calcium, vanadium, ruthenium, cobalt, titanium, manganese or other metals. 400 ng of immodulator peptide IM3N1 in PBS buffer was added per plate. After incubation at room temperature for 60 minutes, excess peptide was washed off and peptide was detected by ELISA using an anti-immodulator rabbit primary antibody (A2501) and horseradish peroxidase conjugated to a secondary anti-rabbit antibody (arbitrary units)*vs EDTA control: • EDTA (no metal): 0.047±0.001 • Fe2+ (Ferrous): 0.844±0.026 (p<0.001*) • Fe3+ (Ferric): 0.848±0.011 (p<0.001*) • Zn2+ (Zinc): 0.194±0.089 (p<0.05*) • Cu2+ (Copper): 0.229±0.086 (p<0.05*)
# [2] = test system: rat scald model; test: Rat scald model, N-terminally modified nephrilin-iron complexes (x5B); format: in vivo, Sprague Dawley rats; settings: male rats, burn, 2 mg/kg peptide complexed with ferric iron, sc days 1-7
# Protocol: Effect of N-terminal modifications on the efficacy of nephrilin IM3N1 peptide in the rat scald model. In this study, five nephrilin-iron binary complexes were compared: IM3N1 (unmodified) and the following: IM3N1vlp (valproic acid), IM3N1dec (decanoic acid), IM3N1fen (fenofibric acid), and IM3N1ibu (ibuprofen). Adult male Sprague Dawley rats (300 gm, Charles River Laboratories, Wilmington, MA, USA) were injected with peptides formulated with equimolar metal ferric iron once daily by subcutaneous bolus injection, days 1-7.
# Treatment group sizes were (n=6) for each group: group S=sham-treated; group B=burn+vehicle; group N1=burn+2 mg/kg nephrilin IM3N1; group N1V=burn+2 mg/kg IM3N1vlp; group N1D=burn+2 mg/kg IM3N1dec; group N1F=burn+2 mg/kg IM3N1fen; group N1I=burn+2 mg/kg IM3N1ibu. The first dose was administered after completion of the scald procedure. Injection volume was 400 uL. Control animals received the same volume of vehicle. Rat scald model was performed and measurements taken as described in Experiment x5A.
# [3] = test system: genes associated with oxidative stress in dorsal root ganglia; test: qRT-PCR of dorsal root ganglia 14 days after burn; format: in vivo, Sprague Dawley rats; settings: DRG 14 days after burn, sham = 1
# Description: Survivors of severe burns suffer lifetime neuroinflammatory consequences manifested by higher incidence of major depression and neurodegenerative disease. […] Nephrilin's mechanism of action appears to involve protection from excessive oxidative stress. Using quantitative reverse transcriptase polymerase chain reaction (qRT-PCR) amplification of transcripts in total RNA extracted from dorsal root ganglia (DRG) of male rats 14 days after exposure to thermal insult, we query the relative levels of expression of 34 genes believed to be associated with oxidative stress biology in the CNS. […] This subset analysis of DRG from a previously published study (n=3 per group) is associated with the following effects in the study (Table x7A):
# In this study, using quantitative reverse transcriptase polymerase chain reaction (qRT-PCR) amplification of transcripts in total RNA extracted from dorsal root ganglia of male rats 14 days after exposure to thermal insult, the relative levels of expression of 34 genes believed to be associated with oxidative stress biology in the CNS were queried, with an emphasis on astrogliosis, immunosuppression and mitochondrial homeostasis. The 34 genes studied were selected based on their known implication in the above processes, as described in the scientific literature. Dorsal root ganglia (DRG) were dissected from male adult Sprague Dawley rats (300 gm, Charles River Laboratories, Wilmington, MA, USA), three randomly selected animals in each treatment group were used (Group 1:sham; Group 2: burn+vehicle; Group 3: burn+IM3N1) and total RNA was extracted from each pool using the Rneasy Midi Kit (Qiagen, Germantown, MD). Yield was ˜30 ug RNA per pool and A260/A280 ratios were between 1.87-2.04 in all cases. The high quality of each RNA prep was further confirmed by electrophoresis (using Eukaryote Total RNA Nano). For quantitative reverse transcriptase polymerase chain reaction (qRT-PCR) RNAs were diluted in RNase/DNase free water and aliquoted into wells in triplicate. Approximately 100 ng of RNA was used per well. A one step qPCR method was performed using Luna Universal One-Step RT-qPCR kit (New England Biolabs, Ipswich, MA) containing reverse transcriptase enzyme mix. Primer pairs for each gene were synthesized for the SYBR assay. The following standard qPCR cycling conditions were used: 55C for 10′ (for RT), 95C for 1′ followed by 40 cycles at 95C for 10 s. 58C for 30 s. Background was set at 3-10 cycles and the threshold was set at 0.02 for all runs. Ct values were collected and analyzed using the “delta-delta Ct” method. Transcript data for each gene are shown relative to GAPDH, a house-keeping gene. Sham group value was set to 1. Gene groups: [A] astrocyte activation; [B] MDSC-mediated immunosuppression; [C] Mitochondrial homeostasis; [D] Downstream effects of oxidative stress;
sequence,measurement,setting,value
RGVTEDYLRLETLVQKVVSKGFYKKKQCRPSKGRKRGFCW [IM3N1],"peptide bound, ELISA",[1]; Cu2+ (Copper),0.229±0.086 arbitrary units
same,"peptide bound, ELISA","[1]; EDTA (no metal), 400 ng peptide",0.047±0.001 arbitrary units
same,"peptide bound, ELISA",[1]; Fe2+ (Ferrous),0.844±0.026 arbitrary units
same,"peptide bound, ELISA",[1]; Fe3+ (Ferric),0.848±0.011 arbitrary units
same,"peptide bound, ELISA",[1]; Zn2+ (Zinc),0.194±0.089 arbitrary units
same,1: early inflammation (24-hr plasma IL-6),[2],38.5 ± 27.8 pg/mL
same,2a: 14-day plasma inflammasome marker IL18,[2],220.4 ± 32.1 pg/mL
same,2b: 14-day plasma inflammasome marker IL1b,[2],52.9 ± 7.8 pg/mL
same,3a: 14-day plasma hyperangiogenesis marker VEGF-A,[2],37.8 ± 15.3 pg/mL
same,3b: 14-day plasma hyperangiogenesis marker CCL5,[2],248.3 ± 29.7 pg/mL
same,3c: 14-day plasma hyperangiogenesis marker CXCL5,[2],855 ± 233 pg/mL
same,"4: glycemic control, 14-day GTT (AUC)",[2],136.4 ± 69.2 mg·dL·h
same,"5: kidney function, 14-day plasma creatinine",[2],0.31 ± 0.09 mg/dL
same,"6: systemic oxidative stress, 14-day plasma OHDG",[2],374 ± 187 pg/mL
same,7: weight loss (slope),[2],2.99 ± 0.53
same,3d: hyperangiogenesis marker PctRedPix,[2],6.53 ± 3.16
same,GFAP transcript relative to GAPDH,"[3]; [A] astrocyte activation, IM3N1 4 mg/kg sc 7 days",2.40
same,AQP4 transcript relative to GAPDH,[3]; [A],0.59
same,CTGF transcript relative to GAPDH,[3]; [A],1.61
same,GALANIN transcript relative to GAPDH,[3]; [A],18.50
same,NPY transcript relative to GAPDH,[3]; [A],29.50
same,Pi16 transcript relative to GAPDH,[3]; [A],2.40
same,S100A9 transcript relative to GAPDH,[3]; [A],5.01
same,SLC7A11 transcript relative to GAPDH,[3]; [B] MDSC-mediated immunosuppression,4.78
same,ARG1 transcript relative to GAPDH,[3]; [B],3.09
same,CCL2 transcript relative to GAPDH,[3]; [B],3.17
same,CD63 transcript relative to GAPDH,[3]; [B],1.88
same,NRF2 transcript relative to GAPDH,[3]; [B],1.29
same,TFAM transcript relative to GAPDH,[3]; [C] Mitochondrial homeostasis,1.14
same,ACMSD transcript relative to GAPDH,[3]; [C],0.97
same,BOK transcript relative to GAPDH,[3]; [C],1.10
same,FIS1 transcript relative to GAPDH,[3]; [C],0.90
same,GLUL transcript relative to GAPDH,[3]; [C],1.53
same,HCRTR1 transcript relative to GAPDH,[3]; [C],1.42
same,MFN2 transcript relative to GAPDH,[3]; [C],1.48
same,NOX2 transcript relative to GAPDH,[3]; [C],2.07
same,NOX4 transcript relative to GAPDH,[3]; [C],6.57
same,OXR1 transcript relative to GAPDH,[3]; [C],1.04
same,PINK1 transcript relative to GAPDH,[3]; [C],1.35
same,PPARGC1A transcript relative to GAPDH,[3]; [C],1.00
same,RAC1 transcript relative to GAPDH,[3]; [C],1.00
same,SHC1 transcript relative to GAPDH,[3]; [C],2.34
same,SLC23A2 transcript relative to GAPDH,[3]; [C],1.47
same,STEAP4 transcript relative to GAPDH,[3]; [C],1.77
same,UCP2 transcript relative to GAPDH,[3]; [C],1.22
same,PLSCR1 transcript relative to GAPDH,[3]; [D] Downstream effects of oxidative stress,2.30
same,BACE1 transcript relative to GAPDH,[3]; [D],1.42
same,SLC12A2 transcript relative to GAPDH,[3]; [D],1.59
same,SLC12A5 transcript relative to GAPDH,[3]; [D],1.38
